# Data from patent US12660819B2, “Herbicidal derivatives” (SYNGENTA CROP PROTECTION AG, priority 2020, dated 2026).
# Legend:
# Type in all cases: in vivo
# [1] = system: Ipomoea hederacea (IPOHE); assay: Pre-emergence Test (glasshouse, percentage damage to the plant); settings: 1000 g/ha unless otherwise stated, five-point scale
# Setaria faberi (SETFA) [2] = assay: as above; settings: 1000 g/ha unless otherwise stated, five-point scale
# [3] = system: Abutilon theophrasti (ABUTH); assay: as above; settings: 1000 g/ha unless otherwise stated, five-point scale
# [4] = system: Echinochloa crus-galli (ECHCG); assay: as above; settings: 1000 g/ha unless otherwise stated, five-point scale
# [5] = system: Abutilon theophrasti (ABUTH); assay: Post-emergence Test (glasshouse, percentage damage to the plant); settings: post-emergence spray, 1000 g/ha unless otherwise stated, evaluated after 13 days
# In short: (§1)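 Scored 13 days after spraying as percentage plant damage in five bands (5=81–100%, 4=61–80%, 3=41–60%, 2=21–40%, 1=0–20%). Spray at 1000 g/ha unless stated, in acetone/water 50:50 plus 0.5% Tween 20, onto sown glasshouse pots (24/16 °C, 14 h light, 65% humidity).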
# [6] = system: Echinochloa crus-galli (ECHCG); assay: as above; settings: post-emergence spray, 1000 g/ha unless otherwise stated, evaluated after 13 days
# In short: as §1
# Setaria faberi (SETFA) [7] = assay: as above; settings: post-emergence spray, 1000 g/ha unless otherwise stated, evaluated after 13 days
# In short: (§2)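 Damage was rated 13 days after treatment and expressed on a five-point scale: 5=81-100%, 4=61-80%, 3=41-60%, 2=21-40%, 1=0-20%. Spray was applied at 1000 g/ha unless otherwise stated, from acetone/water (50:50) with 0.5% Tween 20, to sown pots.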
# [8] = system: Amaranthus retoflexus (AMARE); assay: as above; settings: post-emergence spray, 1000 g/ha unless otherwise stated, evaluated after 13 days
# In short: as §1
# [9] = system: Ipomoea hederacea (IPOHE); assay: as above; settings: post-emergence spray, 1000 g/ha unless otherwise stated, evaluated after 13 days
# In short: as §2
# Zea mays (ZEAMX) [10] = assay: as above; settings: post-emergence spray, 1000 g/ha unless otherwise stated, evaluated after 13 days
# In short: as §2
# Zea mays (ZEAMX) [11] = assay: Pre-emergence Test (glasshouse, percentage damage to the plant); settings: 1000 g/ha unless otherwise stated, five-point scale
# [12] = system: Amaranthus retoflexus (AMARE); assay: as above; settings: 1000 g/ha unless otherwise stated, five-point scale
Compound,"percentage damage to the plant, IPOHE [1]","percentage damage to the plant, SETFA (Setaria faberi (SETFA) [2])","percentage damage to the plant, ABUTH [3]","percentage damage to the plant, ECHCG [4]","Post-emergence Test ABUTH, percentage damage to the plant (five-point scale) [5]","Post-emergence Test ECHCG, percentage damage to the plant (five-point scale) [6]","Post-emergence Test SETFA, percentage damage to the plant (five-point scale) (Setaria faberi (SETFA) [7])","Post-emergence Test AMARE, percentage damage to the plant (five-point scale) [8]","Post-emergence Test IPOHE, percentage damage to the plant (five-point scale) [9]","Post-emergence Test ZEAMX, percentage damage to the plant (five-point scale) (Zea mays (ZEAMX) [10])","percentage damage to the plant, ZEAMX (Zea mays (ZEAMX) [11])","percentage damage to the plant, AMARE [12]"
"CCn1c(C)c(-c2ccc(Cl)cc2)c(=O)c(C(=O)O)c1-c1ccnc(Cl)c1 [Compound 143, 5-(4-chlorophenyl)-2-(2-chloro-4-pyridyl)-1-ethyl-6-methyl-4-oxo-pyridine-3-carboxylic acid]",1 (1=0-20%),5 (5=81-100%),3 (3=41-60%),5 (5=81-100%),4 (4=61-80%),4 (4=61-80%),4 (4=61-80%),2 (2=21-40%),4 (4=61-80%),4 (4=61-80%),3 (3=41-60%),1 (1=0-20%)
"CCn1c(C)c(-c2ccccc2)c(=O)c(C(=O)O)c1-c1ccc(F)cc1F [Compound 135, 2-(2,4-difluorophenyl)-1-ethyl-6-methyl-4-oxo-5-phenyl-pyridine-3-carboxylic acid]",3 (3=41-60%),5 (5=81-100%),3 (3=41-60%),2 (2=21-40%),1 (1=0-20%),0,0,2 (2=21-40%),1 (1=0-20%),0,0,1 (1=0-20%)
"CCn1c(C)c(-c2cc(F)c(F)c(F)c2)c(=O)c(C(=O)O)c1-c1ccc(Cl)c(Cl)c1 [Compound 73, 2-(3,4-dichlorophenyl)-1-ethyl-6-methyl-4-oxo-5-(3,4,5-trifluorophenyl)pyridine-3-carboxylic acid]",2 (2=21-40%),4 (4=61-80%),2 (2=21-40%),2 (2=21-40%),3 (3=41-60%),3 (3=41-60%),4 (4=61-80%),2 (2=21-40%),3 (3=41-60%),2 (2=21-40%),1 (1=0-20%),1 (1=0-20%)
"CCn1c(C)c(-c2ccc(Cl)cc2)c(=O)c(C(=O)O)c1-c1ccc(Cl)cn1 [Compound 131, 5-(4-chlorophenyl)-2-(5-chloro-2-pyridyl)-1-ethyl-6-methyl-4-oxo-pyridine-3-carboxylic acid]",0,0,0,0,1 (1=0-20%),0,3 (3=41-60%),1 (1=0-20%),1 (1=0-20%),2 (2=21-40%),0,0
"CCn1c(-c2ccc(Cl)c(Cl)c2)c(C(=O)O)c(=O)c(-c2ccc(Cl)cc2)c1C(F)(F)F [Compound 132, 5-(4-chlorophenyl)-2-(3,4-dichlorophenyl)-1-ethyl-4-oxo-6-(trifluoromethyl) pyridine-3-carboxylic acid]",2 (2=21-40%),0,4 (4=61-80%),0,3 (3=41-60%),0,0,5 (5=81-100%),4 (4=61-80%),1 (1=0-20%),0,5 (5=81-100%)
"CCn1c(C)c(-c2ccc(Cl)s2)c(=O)c(C(=O)O)c1-c1ccc(Cl)c(Cl)c1 [Compound 63, 5-(5-chloro-2-thienyl)-2-(3,4-dichlorophenyl)-1-ethyl-6-methyl-4-oxo-pyridine-3-carboxylic acid]",2 (2=21-40%),3 (3=41-60%),2 (2=21-40%),1 (1=0-20%),3 (3=41-60%),4 (4=61-80%),3 (3=41-60%),3 (3=41-60%),3 (3=41-60%),3 (3=41-60%),1 (1=0-20%),4 (4=61-80%)
"CCNC(=O)c1cc(-c2c(C)n(CC)c(-c3ccc(Cl)c(Cl)c3)c(C(=O)O)c2=O)ccc1Cl [Compound 72, 5-[4-chloro-3-(ethylcarbamoyl)phenyl]-(3,4-dichlorophenyl)-1-ethyl-6-methyl-4-oxo-pyridine-3-carboxylic acid]",1 (1=0-20%),1 (1=0-20%),1 (1=0-20%),1 (1=0-20%),1 (1=0-20%),1 (1=0-20%),1 (1=0-20%),1 (1=0-20%),1 (1=0-20%),1 (1=0-20%),1 (1=0-20%),1 (1=0-20%)
"CCn1c(C)c(-c2cccc(C#N)c2)c(=O)c(C(=O)O)c1-c1ccnc(Cl)c1 [Compound 141, 2-(2-chloro-4-pyridyl)-5-(3-cyanophenyl)-1-ethyl-6-methyl-4-oxo-pyridine-3-carboxylic acid]",0,0,0,0,0,0,0,0,0,0,0,0
"CCn1c(C)c(-c2ccc(OC)c(C)c2)c(=O)c(C(=O)O)c1-c1ccc(Cl)c(Cl)c1 [Compound 100, 2-(3,4-dichlorophenyl)-1-ethyl-5-(4-methoxy-3-methyl-phenyl)-6-methyl-4-oxo-pyridine-3-carboxylic acid]",1 (1=0-20%),4 (4=61-80%),1 (1=0-20%),1 (1=0-20%),3 (3=41-60%),1 (1=0-20%),3 (3=41-60%),2 (2=21-40%),1 (1=0-20%),3 (3=41-60%),1 (1=0-20%),1 (1=0-20%)
"CCn1c(C)c(-c2ccc(F)cc2OC)c(=O)c(C(=O)O)c1-c1ccc(Cl)c(Cl)c1 [Compound 157, 2-(3,4-dichlorophenyl)-1-ethyl-5-(4-fluoro-2-methoxy-phenyl)-6-methyl-4-oxo-pyridine-3-carboxylic acid]",2 (2=21-40%),5 (5=81-100%),4 (4=61-80%),4 (4=61-80%),4 (4=61-80%),4 (4=61-80%),4 (4=61-80%),1 (1=0-20%),4 (4=61-80%),4 (4=61-80%),3 (3=41-60%),0
